{"source": "PubChem BioAssay (NCI)", "note": "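Protocol summary: plate cells (96-well), add compound at 5 concentrations, incubate 48 h, interpolate endpoints linearly. The concentration for 50% growth inhibition is given as GI50. Definition used: TGI = concentration required for complete inhibition of growth.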"}
{"test_system": "786-0 renal", "test": "NCI anticancer screen, dose series, 48 h", "units": {"GI50": "µM", "TGI": "µM"}}
{"smiles": "COc1ccc(-c2c(C#N)c(N3CCOCC3)nc3[nH]c(=S)[nH]c(=S)c23)cc1OC", "GI50": 30.7, "TGI": "> 100"}
{"smiles": "Cc1ccsc1/C=N/Nc1cnccn1", "TGI": "> 100"}
{"smiles": "NC(N)=Nc1nc2ccccc2o1", "GI50": "> 100", "TGI": "> 100"}
{"smiles": "COc1cc(/C=C2\\CCCCC3=C2N=C2SC(C)=CN2C3c2cc(OC)c(OC)c(OC)c2)cc(OC)c1OC", "note": "(configuration not stated)", "GI50": 40.5, "TGI": "> 100"}
{"test_system": "SW-620 colon", "test": "NCI anticancer screen, dose series, 48 h", "units": {"GI50": "µM", "TGI": "µM"}}
{"smiles": "COc1ccc(-c2c(C#N)c(N3CCOCC3)nc3[nH]c(=S)[nH]c(=S)c23)cc1OC", "GI50": 49.1, "TGI": "> 100"}
{"smiles": "Cc1ccsc1/C=N/Nc1cnccn1", "TGI": "> 100"}
{"smiles": "NC(N)=Nc1nc2ccccc2o1", "GI50": "> 100", "TGI": "> 100"}
{"smiles": "COc1cc(/C=C2\\CCCCC3=C2N=C2SC(C)=CN2C3c2cc(OC)c(OC)c(OC)c2)cc(OC)c1OC", "note": "(configuration not stated)", "GI50": "> 100", "TGI": "> 100"}
{"test_system": "MDA-MB-435", "test": "NCI anticancer screen, dose series, 48 h", "units": {"GI50": "µM", "TGI": "µM"}}
{"smiles": "COc1ccc(-c2c(C#N)c(N3CCOCC3)nc3[nH]c(=S)[nH]c(=S)c23)cc1OC", "GI50": 54.8, "TGI": "> 100"}
{"smiles": "Cc1ccsc1/C=N/Nc1cnccn1", "TGI": "> 100"}
{"smiles": "NC(N)=Nc1nc2ccccc2o1", "GI50": "> 100", "TGI": "> 100"}
{"smiles": "COc1cc(/C=C2\\CCCCC3=C2N=C2SC(C)=CN2C3c2cc(OC)c(OC)c(OC)c2)cc(OC)c1OC", "note": "(configuration not stated)", "GI50": 24.3, "TGI": "> 100"}
{"test_system": "MCF7 breast", "test": "NCI anticancer screen, dose series, 48 h", "units": {"GI50": "µM", "TGI": "µM"}}
{"smiles": "COc1ccc(-c2c(C#N)c(N3CCOCC3)nc3[nH]c(=S)[nH]c(=S)c23)cc1OC", "GI50": 29.4, "TGI": "> 100"}
{"smiles": "Cc1ccsc1/C=N/Nc1cnccn1", "TGI": "> 100"}
{"smiles": "NC(N)=Nc1nc2ccccc2o1", "GI50": "> 100", "TGI": "> 100"}
{"smiles": "COc1cc(/C=C2\\CCCCC3=C2N=C2SC(C)=CN2C3c2cc(OC)c(OC)c(OC)c2)cc(OC)c1OC", "note": "(configuration not stated)", "GI50": 22.6, "TGI": "> 100"}
{"test_system": "SF-295 CNS", "test": "NCI anticancer screen, dose series, 48 h", "units": {"GI50": "µM", "TGI": "µM"}}
{"smiles": "OC(c1cc2cc(Cl)ccc2c2cc(C(F)(F)F)ccc12)C1CCCCN1", "note": "(configuration not stated)", "GI50": 1.96, "TGI": 3.69}
{"smiles": "COc1ccc(-c2c(C#N)c(N3CCOCC3)nc3[nH]c(=S)[nH]c(=S)c23)cc1OC", "GI50": 40.1, "TGI": "> 100"}
{"smiles": "Cc1ccsc1/C=N/Nc1cnccn1", "TGI": "> 100"}
{"smiles": "NC(N)=Nc1nc2ccccc2o1", "GI50": "> 100", "TGI": "> 100"}
{"smiles": "COc1cc(/C=C2\\CCCCC3=C2N=C2SC(C)=CN2C3c2cc(OC)c(OC)c(OC)c2)cc(OC)c1OC", "note": "(configuration not stated)", "GI50": 18, "TGI": "> 100"}
{"test_system": "M14 melanoma", "test": "NCI anticancer screen, dose series, 48 h", "units": {"GI50": "µM", "TGI": "µM"}}
{"smiles": "COc1ccc(-c2c(C#N)c(N3CCOCC3)nc3[nH]c(=S)[nH]c(=S)c23)cc1OC", "GI50": 81.6, "TGI": "> 100"}
{"smiles": "Cc1ccsc1/C=N/Nc1cnccn1", "TGI": "> 100"}
{"smiles": "NC(N)=Nc1nc2ccccc2o1", "GI50": "> 100", "TGI": "> 100"}
{"smiles": "COc1cc(/C=C2\\CCCCC3=C2N=C2SC(C)=CN2C3c2cc(OC)c(OC)c(OC)c2)cc(OC)c1OC", "note": "(configuration not stated)", "GI50": 23.7, "TGI": "> 100"}
{"test_system": "NCI/ADR-RES ovarian", "test": "NCI anticancer screen, dose series, 48 h", "units": {"GI50": "µM", "TGI": "µM"}}
{"smiles": "COc1ccc(-c2c(C#N)c(N3CCOCC3)nc3[nH]c(=S)[nH]c(=S)c23)cc1OC", "GI50": 56.6, "TGI": "> 100"}
{"smiles": "Cc1ccsc1/C=N/Nc1cnccn1", "TGI": "> 100"}
{"smiles": "NC(N)=Nc1nc2ccccc2o1", "GI50": "> 100", "TGI": "> 100"}
{"smiles": "COc1cc(/C=C2\\CCCCC3=C2N=C2SC(C)=CN2C3c2cc(OC)c(OC)c(OC)c2)cc(OC)c1OC", "note": "(configuration not stated)", "GI50": 12, "TGI": "> 100"}
{"test_system": "NCI-H522 lung", "test": "NCI anticancer screen, dose series, 48 h", "units": {"GI50": "µM", "TGI": "µM"}}
{"smiles": "COc1ccc(-c2c(C#N)c(N3CCOCC3)nc3[nH]c(=S)[nH]c(=S)c23)cc1OC", "GI50": "> 100", "TGI": "> 100"}
{"smiles": "COc1cc(/C=C2\\CCCCC3=C2N=C2SC(C)=CN2C3c2cc(OC)c(OC)c(OC)c2)cc(OC)c1OC", "note": "(configuration not stated)", "GI50": 1.32, "TGI": "> 100"}
{"test_system": "CCRF-CEM leukemia", "test": "NCI anticancer screen, dose series, 48 h", "units": {"GI50": "µM", "TGI": "µM"}}
{"smiles": "COc1ccc(-c2c(C#N)c(N3CCOCC3)nc3[nH]c(=S)[nH]c(=S)c23)cc1OC", "GI50": 41.3, "TGI": "> 100"}
{"smiles": "Cc1ccsc1/C=N/Nc1cnccn1", "TGI": "> 100"}
{"smiles": "NC(N)=Nc1nc2ccccc2o1", "GI50": "> 100", "TGI": "> 100"}
{"smiles": "COc1cc(/C=C2\\CCCCC3=C2N=C2SC(C)=CN2C3c2cc(OC)c(OC)c(OC)c2)cc(OC)c1OC", "note": "(configuration not stated)", "GI50": 34.7, "TGI": "> 100"}
{"test_system": "ACHN renal", "test": "NCI anticancer screen, dose series, 48 h", "units": {"GI50": "µM", "TGI": "µM"}}
{"smiles": "COc1ccc(-c2c(C#N)c(N3CCOCC3)nc3[nH]c(=S)[nH]c(=S)c23)cc1OC", "GI50": 35.8, "TGI": "> 100"}
{"smiles": "Cc1ccsc1/C=N/Nc1cnccn1", "TGI": "> 100"}
{"smiles": "NC(N)=Nc1nc2ccccc2o1", "GI50": "> 100", "TGI": "> 100"}
{"smiles": "COc1cc(/C=C2\\CCCCC3=C2N=C2SC(C)=CN2C3c2cc(OC)c(OC)c(OC)c2)cc(OC)c1OC", "note": "(configuration not stated)", "GI50": 11.9, "TGI": "> 100"}
{"test_system": "HCT-15 colon", "test": "NCI anticancer screen, dose series, 48 h", "units": {"GI50": "µM", "TGI": "µM"}}
{"smiles": "COc1ccc(-c2c(C#N)c(N3CCOCC3)nc3[nH]c(=S)[nH]c(=S)c23)cc1OC", "GI50": 43.6, "TGI": "> 100"}
{"smiles": "Cc1ccsc1/C=N/Nc1cnccn1", "TGI": "> 100"}
{"smiles": "NC(N)=Nc1nc2ccccc2o1", "GI50": "> 100", "TGI": "> 100"}
{"test_system": "MALME-3M melanoma", "test": "NCI anticancer screen, dose series, 48 h", "units": {"TGI": "µM", "GI50": "µM"}}
{"smiles": "Cc1ccsc1/C=N/Nc1cnccn1", "TGI": "> 100"}
{"smiles": "NC(N)=Nc1nc2ccccc2o1", "GI50": "> 100", "TGI": "> 100"}
{"smiles": "COc1cc(/C=C2\\CCCCC3=C2N=C2SC(C)=CN2C3c2cc(OC)c(OC)c(OC)c2)cc(OC)c1OC", "note": "(configuration not stated)", "GI50": 15.2, "TGI": "> 100"}
{"test_system": "LOX IMVI melanoma", "test": "NCI anticancer screen, dose series, 48 h", "units": {"GI50": "µM", "TGI": "µM"}}
{"smiles": "COc1ccc(-c2c(C#N)c(N3CCOCC3)nc3[nH]c(=S)[nH]c(=S)c23)cc1OC", "GI50": 16.7, "TGI": 60.9}
{"smiles": "Cc1ccsc1/C=N/Nc1cnccn1", "TGI": "> 100"}
{"smiles": "NC(N)=Nc1nc2ccccc2o1", "GI50": "> 100", "TGI": "> 100"}
{"smiles": "COc1cc(/C=C2\\CCCCC3=C2N=C2SC(C)=CN2C3c2cc(OC)c(OC)c(OC)c2)cc(OC)c1OC", "note": "(configuration not stated)", "GI50": "> 100", "TGI": "> 100"}
{"test_system": "A498 renal", "test": "NCI anticancer screen, dose series, 48 h", "units": {"GI50": "µM", "TGI": "µM"}}
{"smiles": "COc1ccc(-c2c(C#N)c(N3CCOCC3)nc3[nH]c(=S)[nH]c(=S)c23)cc1OC", "GI50": "> 100", "TGI": "> 100"}
{"smiles": "Cc1ccsc1/C=N/Nc1cnccn1", "TGI": "> 100"}
{"test_system": "EKVX NSCLC", "test": "NCI anticancer screen, dose series, 48 h", "units": {"GI50": "µM", "TGI": "µM"}}
{"smiles": "COc1ccc(-c2c(C#N)c(N3CCOCC3)nc3[nH]c(=S)[nH]c(=S)c23)cc1OC", "GI50": "> 100", "TGI": "> 100"}
{"smiles": "Cc1ccsc1/C=N/Nc1cnccn1", "TGI": "> 100"}
{"smiles": "NC(N)=Nc1nc2ccccc2o1", "GI50": "> 100", "TGI": "> 100"}
{"test_system": "OVCAR-3 ovarian", "test": "NCI anticancer screen, dose series, 48 h", "units": {"GI50": "µM", "TGI": "µM"}}
{"smiles": "COc1ccc(-c2c(C#N)c(N3CCOCC3)nc3[nH]c(=S)[nH]c(=S)c23)cc1OC", "GI50": 34.6, "TGI": "> 100"}
{"smiles": "Cc1ccsc1/C=N/Nc1cnccn1", "TGI": "> 100"}
